Test system: Methicillin Resistant Staphylococcus aureus (NRS 384/USA 300)
Test: Deep partial thickness biofilm prevention porcine wound model, MRSA
Type: in vivo
Method: The animals were prepared as described (above). Ninety-six (96) rectangular wounds measuring 10 mm×7 mm×0.5 mm deep were made in the paravertebral and thoracic area with a specialized electrokeratome fitted with a 7 mm blade. The wounds were separated from one another by 15 mm of unwounded skin and individually dressed. The wounds were then inoculated and treated. A fresh culture of Acinetobacter baumannii ATCC 19606 or Methicillin Resistant Staphylococcus aureus (NRS 384/USA 300) was used in these studies. The challenge inoculum suspension was prepared by scraping the overnight growth from a culture plate into 5 ml of normal saline. […] Serial dilutions were made until a concentration of 10^6 CFU/ml was achieved. […] In addition, serial dilutions of the suspension were plated onto selective media and the plates were incubated aerobically overnight (16-24 hours) at 37° C., in order to quantify the exact concentration of viable organisms used for this experiment. […]
Twelve (12) wounds were recovered from each treatment group on each assessment day (days 3 and 4). […] Serial dilutions were made from all culture samples, and the extent of microbiological contamination was assessed using the Spiral Plater System (Spiral Biotech, Norwood, Mass.). […] All plates were incubated aerobically overnight 24 hours at 37° C., after which time the number of viable colonies were counted.

## C/C(=C\C(=O)OCCCCCCCCC(=O)O)C[C@@H]1OC[C@H](C[C@@H]2O[C@H]2[C@@H](C)[C@H](C)O)[C@@H](O)[C@H]1O [mupirocin]
Across treatment days
  biofilm infection at day 3 compared to day 4 (MRSA): significant reduction in biofilm infection
Days 3 and 4
  biofilm infection (MRSA): significantly reduced biofilm infection

From US11433092B2, “Compositions and methods of use for wound healing” (SYNEDGEN, INC., priority 2013, dated 2022)
